Measurements from EP3381906A1, “COMPOUNDS FOR USE AS HEPARANASE INHIBITORS” (Leadiant Biosciences SA, priority 2017, dated 2018).
Where two headings read alike, the source gives them in different places.

Columns and labels:
[1] = test system: U87MG (human glioblastoma astrocytoma); assay: SRB Cell Cytotoxicity Assay; type: cell-based; details: U-87 MG, treated for 72h, read-out: Concentration of test compounds at which the cell growth is inhibited by 50 % U87MG
Excerpt: (§1) SRB Cell Cytotoxicity Assay is an assay based upon the quantitative staining of cellular proteins by sulforhodamine B (SRB). This assay can be used for high-throughput drug screening (Vichai & Kirkitara, Nature Protocol. 2006, 1, 112). Sulforhodamine B is an anionic aminoxanthene dye that forms an electrostatic complex with the basic amino acid residues of proteins under moderately acid conditions, which provides a sensitive linear response.
(§2) To assess a putative antiproliferative activity of the selected compounds, HT1080 (human fibrosarcoma), U87MG (human glioblastoma astrocytoma) and U2OS (human osteosarcoma) cell lines were treated for 72h, in triplicate, with increasing concentrations of heparanase inhibitors. Inhibition of cell proliferation was then measured by the classical colorimetric SRB Cell Cytotoxicity assay. Absorbance was measured by spectrophotometer at a wavelength of 510 nm and cell proliferation was determined as percent with respect to control cells (cells treated with the vehicle alone). EC50 values were then determined by GraphPad Prism.

[2] = test system: HT1080 (human fibrosarcoma); assay: SRB Cell Cytotoxicity Assay; type: cell-based; details: HT-1080, HT1080, treated for 72h, read-out: Concentration of test compounds at which the cell growth is inhibited by 50 % HT1080
Excerpt: as §1, §2

[3] = test system: U2OS (human osteosarcoma); assay: SRB Cell Cytotoxicity Assay; type: cell-based; details: treated for 72h, read-out: Concentration of test compounds at which the cell growth is inhibited by 50 % U2OS
Excerpt: as §1, §2

heparanase = biological target: T1, heparanase (Homo sapiens, UniProt Q9Y251); assay: AGA*IA assay: heparanase-catalyzed fondaparinux cleavage, colorimetric (WST-1); type: biochemical
T1 construct: 100 µM fondaparinux, 2.5 nM heparanase and serial dilutions of test compounds
T1 sequence (Q9Y251 158-543 limits assumed): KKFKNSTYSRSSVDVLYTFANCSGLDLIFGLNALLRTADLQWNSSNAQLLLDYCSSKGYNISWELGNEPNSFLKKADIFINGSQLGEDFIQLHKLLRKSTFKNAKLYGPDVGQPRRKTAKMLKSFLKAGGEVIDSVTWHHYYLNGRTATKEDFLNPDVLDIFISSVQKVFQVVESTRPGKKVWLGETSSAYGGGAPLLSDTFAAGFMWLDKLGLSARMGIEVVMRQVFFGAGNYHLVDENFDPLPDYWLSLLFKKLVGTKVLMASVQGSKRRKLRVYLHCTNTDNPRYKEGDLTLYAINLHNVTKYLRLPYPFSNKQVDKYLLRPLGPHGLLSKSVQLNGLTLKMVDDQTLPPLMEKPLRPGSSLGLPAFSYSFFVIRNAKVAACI
T1 sequence (Q9Y251 36-109 limits assumed): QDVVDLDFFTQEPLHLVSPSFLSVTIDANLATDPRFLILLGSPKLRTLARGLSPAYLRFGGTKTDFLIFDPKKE
Method: All compounds were tested in a simple, accurate and robust microplate assay based on the cleavage of the synthetic heparin fragment, the pentasaccharide Fondaparinux (AGA*IA). This assay was originally developed by Hammond and coworkers [Hammond E, Li CP, Ferro V. Development of a colorimetric assay for heparanase activity suitable for kinetic analysis and inhibitor screening. […] Fondaparinux is cleaved by heparanase to generate a reducing disaccharide, which can be quantitatively measured via a colorimetric or a fluorescence assay, the last by the fluorescent sensor polymer-H [Schiemann S, Lühn S, Alban S. Development of both colorimetric and fluorescence heparinase activity assays using fondaparinux as substrate.
The assay measures the appearance of the disaccharide product of heparanase-catalyzed fondaparinux cleavage colorimetrically using the tetrazolium salt WST-1. Assay was essentially performed as described with minor modifications. Briefly, NUNC ELISA 96-well plates were pre-treated with a solution of 4% BSA (bovin serum albumin) in phosphate-buffered saline containing 0.05% Tween 20 (PBST), for 2 h at 37°C, then washed three times with PBST, dried by tapping on paper towel and stored at -20°C. Before use, once again, the plates were washed with PBST.
Then, the absorbance at 560 nm was measured through a microplate reader (Victor 3, Perkin Elmer).
Finally, the measurements were corrected by subtracting both the reagent background and the inner absorbance value of test compound.

[4] = test system: HT1080 (human fibrosarcoma); assay: Matrigel cell invasion assay; type: cell-based
Method: Heparanase inhibitors were then evaluated for their activity on the invasive potential of HT1080 (human fibrosarcoma) human cell lines, using the Matrigel cell invasion assay which allows to assess the cell invasion ability of malignant and normal cells.
Invasion assay was performed using BioCoat cell culture inserts (BioCoat 8.0µm PET Membrane 24 Well Permeable Supports, Corning). Filters were coated with 100 µl of 300 µg/ml Matrigel dissolved in coating buffer (0.01M Tris pH 8.0, 0.7% NaCl) (Becton-Dickinson Sciences). DMEM (Dulbecco's Modified Eagle's Medium) containing 5% FBS was added to the lower chambers. Cells were pre-treated with heparanase inhibitors for 24 h, detached and added to the upper chambers in media containing the inhibitors. Cells were allowed to invade for 24 h at 37°C in a CO2 incubator and then unmigrated cells were removed from the upper chamber with a cotton swab. The invading cells were fixed, stained with 0.1% crystal violet for 10 min at room temperature, photographed and counted under inverted microscope.
Test compounds were analyzed at fixed concentration for several fields, in duplicates. Activity of test compounds was compared to the reference compound. Activity of most interesting compound was confirmed in a second cell invasion assay. Data were expressed as the percent invasion with respect to cell migration through uncoated insert membrane. (Table 5)

[5] = test system: HT1080 (human fibrosarcoma); assay: Cell adhesion assay on matrigel coated wells; type: cell-based; details: percent of adhesion with respect to the control (100%)
Method: Cell surface, non-integrin molecules such as heparan sulfate proteoglycans (HSPGs) may be involved in the regulation of early adhesive stages of cell-ECM interactions. A cell adhesion assay has been employed to determine if the newly designed heparanase inhibitors were able to interfere with adhesion properties of cancer cells.
HT1080 (human fibrosarcoma) cells were treated for 18-20 h with test compounds in complete medium supplemented with 10% FCS. Then cells were collected, washed in complete medium, and added to matrigel coated wells in triplicate, at previously identified optimal seeding density, and incubated at 37 °C in complete medium for times ranging from 15 minutes to 4h, according to the cell line. After incubation, the wells were washed three times with serum-free medium and the remaining firmly attached cells were stained with crystal-violet 0.1%. Optical density was measured at 560 nm by Victor 3 (Perkin-Elmer) plate analyzer. Each experiment was repeated three times.

U2OS = assay: Matrigel cell invasion assay; type: cell-based, human; design: key to Invasion Assay Inhibition (%) U2OS: +++: > 90%; ++: 50-90 %; +: < 50%; -: Not active
U87MG [6] = assay: Cell adhesion assay on matrigel coated wells; type: cell-based, human; details: percent of adhesion with respect to the control (100%)
U87MG [7] = assay: Matrigel cell invasion assay; type: cell-based, human; design: key to Invasion Assay Inhibition (%) U87MG: +++: > 90%; ++: 50-90 %; +: < 50%; -: Not active
[8] = 2.5 nM heparanase, 100 µM fondaparinux, pH 5.0, 3 h at 37°C; class symbols; read-out: AGAIA assay (IC50)

| IC50 (heparanase; [8]) [µM] | SMILES | EC50 [1] [µM] | EC50 [2] [µM] | EC50 [3] [µM] | also measured |
| --- | --- | --- | --- | --- | --- |
|  | O=C(Nc1ccc2c(O)c(N=Nc3ccc(N=Nc4ccc(S(=O)(=O)O)cc4)cc3S(=O)(=O)O)c(S(=O)(=O)O)cc2c1)Nc1ccc2c(O)c(N=Nc3ccc(N=Nc4ccc(S(=O)(=O)O)cc4)cc3S(=O)(=O)O)c(S(=O)(=O)O)cc2c1 [SST0595] | > 10 | > 10 | > 10 | IC50 (heparanase; read-out: AGAIA assay (IC50); 2.5 nM heparanase, 100 µM fondaparinux, pH 5.0, 3 h at 37°C; class symbols): 0.5 to 0.99 µM |
| 0.05 to 0.49 | O=C(Nc1cccc(-c2nc3ccccc3[nH]2)c1)c1ccc(Oc2ccc(C(=O)Nc3cccc(-c4nc5ccccc5[nH]4)c3)cc2)cc1 [SST0656, N-[3-(1H-benzimidazol-2-yl)phenyl]-4-[4-[[3-(1H-benzimidazol-2-yl)phenyl]carbamoyl]phenoxy]benzamide] | > 2.5 | > 2.5 | > 2.5 | inhibition at 2.5 µM ([4]; HT-1080, HT1080, Conc. 2.5 µM): < 50%; Adhesion Assay (%) HT1080 ([5]; HT1080, Conc. 2.5 µM): ∼ 87%; inhibition at 2.5 µM (U2OS; Homo sapiens, Conc. 2.5 µM): < 50%; Adhesion Assay (%) U87MG (U87MG [6]; Conc. 2.5 µM): ∼ 97%; inhibition at 2.5 µM (U87MG [7]; Homo sapiens, U-87 MG, Conc. 2.5 µM): < 50% |
| 0.5 to 0.99 | CC(C)(c1ccc(Oc2ccc3c(c2)C(=O)N(c2cccc(C(=O)O)c2)C3=O)cc1)c1ccc(Oc2ccc3c(c2)C(=O)N(c2cccc(C(=O)O)c2)C3=O)cc1 [SST0851, 3-[5-[4-[2-[4-[2-(3-carboxyphenyl)-1,3-dioxoisoindol-5-yl]oxyphenyl]propan-2-yl]phenoxy]-1,3-dioxoisoindol-2-yl]benzoic acid] | > 2.5 | > 2.5 | > 2.5 |  |
| 0.5 to 0.99 | O=C(O)/C=C/C(=O)Nc1ccc(Sc2ccc(Oc3ccc(Sc4ccc(NC(=O)/C=C/C(=O)O)cc4)cc3)cc2)cc1 [SST0806, (E)-4-[4-[4-[4-[4-[[(E)-3-carboxyprop-2-enoyl]amino]phenyl]sulfanylphenoxy]phenyl]sulfanylanilino]-4-oxobut-2-enoic acid] | > 2.5 | > 2.5 | > 2.5 |  |
|  | Cc1ccc(C(=O)Nc2ccc(S(=O)(=O)O)c3cc(S(=O)(=O)O)cc(S(=O)(=O)O)c23)cc1NC(=O)c1cccc(NC(=O)Nc2cccc(C(=O)Nc3cc(C(=O)Nc4ccc(S(=O)(=O)O)c5cc(S(=O)(=O)O)cc(S(=O)(=O)O)c45)ccc3C)c2)c1 [Suramin, reference compound] | > 10 | > 10 | > 10 | inhibition at 10 µM ([4]; HT-1080, HT1080, Conc. 10 µM): < 50%; Adhesion Assay (%) HT1080 ([5]; HT1080, Conc. 10 µM): ∼ 100%; Invasion Assay Inhibition (%) U2OS (U2OS; Conc. 10 µM): -; Adhesion Assay (%) U87MG (U87MG [6]; Conc. 10 µM): ∼ 73%; Invasion Assay Inhibition (%) U87MG (U87MG [7]; Conc. 10 µM): - |
| 1 to 10 | O=C(O)c1ccc(Oc2ccc3c(c2)C(=O)N(c2ccc(Oc4ccc(N5C(=O)c6ccc(Oc7ccc(C(=O)O)cc7)cc6C5=O)cc4)cc2)C3=O)cc1 [SST0807, 4-[2-[4-[4-[5-(4-carboxyphenoxy)-1,3-dioxoisoindol-2-yl]phenoxy]phenyl]-1,3-dioxoisoindol-5-yl]oxybenzoic acid] |  |  |  |  |
| 1 to 10 | O=C(O)c1ccc(N2C(=O)c3ccc(Oc4cccc(Oc5ccc6c(c5)C(=O)N(c5ccc(C(=O)O)cc5)C6=O)c4)cc3C2=O)cc1 [SST0860, Benzoic acid, 4,4'-[1,3-phenylenebis[oxy(1,3-dihydro-1,3-dioxo-2H-isoindole-5,2-diyl)]]bis-] |  |  |  |  |
| 1 to 10 | O=C(Nc1ccccc1C(=O)O)c1ccc2c(c1)C(=O)N(c1ccc(Oc3ccc(N4C(=O)c5ccc(C(=O)Nc6ccccc6C(=O)O)cc5C4=O)cc3)cc1)C2=O [SST0600, Benzoic acid, 2,2'-[oxybis[4,1-phenylene(1,3-dihydro-1,3-dioxo-2H-isoindole-2,5-diyl)carbonylimino]]bis-] |  |  |  |  |
| 0.5 to 0.99 | O=C(O)c1ccc(Oc2cccc(N3C(=O)c4ccc(Oc5ccc6c(c5)C(=O)N(c5cccc(Oc7ccc(C(=O)O)c(C(=O)O)c7)c5)C6=O)cc4C3=O)c2)cc1C(=O)O [SST0853, 4-[3-[5-[2-[3-(3,4-dicarboxyphenoxy)phenyl]-1,3-dioxoisoindol-5-yl]oxy-1,3-dioxoisoindol-2-yl]phenoxy]phthalic acid] | > 2.5 | > 2.5 | > 2.5 |  |
| 1 to 10 | O=C(Nc1ccccc1C(=O)O)c1ccc2c(c1)C(=O)N(c1ccc(S(=O)(=O)c3ccc(N4C(=O)c5ccc(C(=O)Nc6ccccc6C(=O)O)cc5C4=O)cc3)cc1)C2=O [SST0602, 2-[[2-[4-[4-[5-[(2-carboxyphenyl)carbamoyl]-1,3-dioxoisoindol-2-yl]phenyl]sulfonylphenyl]-1,3-dioxoisoindole-5-carbonyl]amino]benzoic acid] |  |  |  |  |
| 1 to 10 | O=C(Nc1nc(-c2ccc(F)cc2)cs1)c1ccc(Oc2ccc(C(=O)Nc3nc(-c4ccc(F)cc4)cs3)cc2)cc1 [SST0815] |  |  |  |  |
